In patent US4372948A, “Derivative of saccharide and physiologically active agent containing the same” (Kureha Kagaku Kogyo Kabushiki Kaisha, priority 1980, dated 1983):

Columns and labels:
in vivo = conditions: mouse, in vivo, po, mice, 7 days observation, read-out: LD50, acute oral toxicity
exudation = assay: Anti-exudation activity (air pouch, croton oil); format: in vivo, rat; conditions: 5 days; for inhibition in vivo at 1000 mg/kg/day: Rattus norvegicus, po, 144 h, read-out: I.R. against exudation; for I.R. against exudation: oral, 1000 mg/kg/day
Method in brief: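 Rats, 6 per group, given subcutaneous dorsal air pouch injected with 0.5 ml sesame oil containing 1% croton oil. Compounds dosed orally in distilled water at 1000 mg/kg/day for five days; pouch exudate volume measured on day 6 and expressed as percent inhibition of exudation.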

blood pressure = assay: Anti-hypertension activity (reduction of blood pressure); format: in vivo, rat (spontaneous hypertension); conditions: oral, 300 mg/kg
Method in brief: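 Spontaneously hypertensive rats dosed orally at 300 mg/kg in distilled water. Blood pressure measured at 3 and 6 h. Activity taken as change from the value just before dosing.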

level of blood sugar = assay: Anti-hyperglycemia activity (reduction of blood sugar level); format: in vivo, rat (Wistar, streptozotocin); conditions: oral, 300 mg/kg
Method in brief: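 Streptozotocin-diabetic Wistar rats (60 mg/kg i.p., relapsed hyperglycemia after insulin) given compounds orally at 300 mg/kg in distilled water. Blood sugar measured in samples taken 3 and 6 h post-dose.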

acetic acid writhing = assay: Analgetic activity against chemical stimulation of acetic acid (writhing); format: in vivo, mouse (ICR female); conditions: 30 min before 0.6% acetic acid; for inhibition in vivo at 1000 mg/kg: Mus musculus, po, read-out: I.R. of writhing; for I.R. of writhing: oral, 1000 mg/kg
Excerpt: Rate of inhibition (I.R.) (%)=(1-T/C)×100
T represents the average number of writhing of the group of mice administered with the present compound and injected with acetic acid, and C represents the average number of writhing of the group of mice only injected with acetic acid (control).

cotton pellet granuloma = assay: Anti-granuloma activity (cotton pellet); format: in vivo, rat; conditions: 7 days; for inhibition in vivo at 1000 mg/kg/day: Rattus norvegicus, po, 192 h, read-out: I.R. against cotton pellet edema; for I.R. against cotton pellet edema: oral, 1000 mg/kg/day
Method in brief: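 Rats (6/group) implanted dorsally with two 30±1 mg cotton pellets; compounds given orally in distilled water at 1000 mg/kg/day once daily for 7 days. Granuloma excised on day 8 and dry weight measured; value is % inhibition of granuloma proliferation.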

beta-lipoprotein = assay: Anti-hyperlipemia activity, beta-lipoprotein in blood; format: in vivo, rabbit (Japanese white male); conditions: oral, 300 mg/kg once
Method in brief: (§1)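 Male Japanese white rabbits fed 1% cholesterol diet for 3 months received compound once orally at 300 mg/kg in water. Ear-vein blood: cholesterol by enzymatic method, beta-lipoprotein by colorimetry; values are change from predose at 3 or 6 h.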

[1] = tested on: pseudo-escaping reaction to tail pressure; assay: Analgetic activity against mechanical stimulation of pressure; format: in vivo, mouse (ICR female); conditions: oral, 1000 mg/kg
total cholesterol = assay: Anti-hyperlipemia activity, total cholesterol in blood; format: in vivo, rabbit (Japanese white male); conditions: oral, 300 mg/kg once; for Reduction of cholesterol level after 3 hrs.: negative = raising
Method in brief: as §1

[2] = tested on: pyrexia (Saccharomyces cerevisiae); assay: Anti-pyrexia activity (yeast-induced); format: in vivo; conditions: Rattus norvegicus, oral, read-out: Rate of inhibiting pyrexia (I.R.)
Method in brief: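 Rats (n=6/group) received subcutaneous 20% Saccharomyces cerevisiae suspension, fasted 10 h, then dosed orally with 1000 mg/kg compound in distilled water. Rectal temperature was tracked at set intervals and the lowest value taken; inhibition rate computed against non-yeast and yeast-only control temperatures.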

Sarcoma-180 = assay: Anti-tumour activity against Sarcoma-180; format: in vivo, mouse (ICR-JCL); conditions: 10 times every other day, tumour weight on 25th day; for inhibition in vivo at 500 mg/kg: Mus musculus, Sarcoma-180, po, 600 h, read-out: Antitumour activity, inhibiting rate (I.R.); for Antitumour activity, inhibiting rate (I.R.): oral, 500 mg/kg/time, 500 mg/kg
Method in brief: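 ICR-JCL mice were given 1×10^6 Sarcoma-180 cells axillary; from 24 hours, compounds in saline were dosed orally at 500 mg/kg/time, 10 times every other day. Tumour nodes were weighed on day 25; inhibition rate = (1-T/C)×100(%) versus untreated tumour-bearing mice.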

carrageenin edema = assay: Anti-Carrageenin edema activity; format: in vivo, rat; conditions: 1000 mg/kg once; for inhibition in vivo at 1000 mg/kg: Rattus norvegicus, po, read-out: I.R. against carrageenin edema; for I.R. against carrageenin edema: oral, 1000 mg/kg
Method in brief: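 Rats (10 per group) given compound orally once at 1000 mg/kg in distilled water, then 0.1 ml 1% carrageenin injected into right hind foot pad. Foot pad thickness measured at intervals; inhibition rate (%) = (1−T/C)×100 versus carrageenin-only animals.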

ICR-JCL mice = assay: in vivo; conditions: 7 days observation, 10080 min
[3] = tested on: Bacillus subtilis strain H17; assay: Mutagenicity, Rec-Assay, recombination repair retaining strain; conditions: 10 microgram/disk
Protocol: (§2) Then, a solution or suspension of each of the present compounds was absorbed on a round sheet of paper (disk) of 8 mm in diameter in an amount of 0.04 ml and the disk was placed on the culture plate so as to cover the starting points of the streaks of the micro-organism's culture.

[4] = tested on: Bacillus subtilis strain M45; assay: Mutagenicity, Rec-Assay, recombination repair deficient strain; conditions: 10 microgram/disk
Protocol: as §2

| SMILES | LD50 at 168 h (in vivo) [mg/kg] | inhibition in vivo at 1000 mg/kg/day (exudation) [%] | Reduced level of blood pressure after 3 hrs. (blood pressure) [mm Hg] | Reduced level of blood pressure after 6 hrs. (blood pressure) [mm Hg] | Reduced level of blood sugar after 3 hrs. (level of blood sugar) [mg/dL] | Reduced level of blood sugar after 6 hrs. (level of blood sugar) [mg/dL] | inhibition in vivo at 1000 mg/kg (acetic acid writhing) [%] | inhibition in vivo at 1000 mg/kg/day (cotton pellet granuloma) [%] | Reduction of beta-lipoprotein level after 3 hrs. (beta-lipoprotein) [mg/dL] | Reduction of beta-lipoprotein level after 6 hrs. (beta-lipoprotein) [mg/dL] | Pseudo-escapting reaction pressure [1] [mmHg] | Pseudo-escapting reaction time [1] [s] | Reduction of cholesterol level after 3 hrs. (total cholesterol) [mg/dL] | Reduction of cholesterol level after 6 hrs. (total cholesterol) [mg/dL] | inhibition in vivo at 1000 mg/kg [2] [%] | inhibition in vivo at 500 mg/kg (Sarcoma-180) [%] | inhibition in vivo at 1000 mg/kg (carrageenin edema) [%] | further results |
| --- | --- | --- | --- | --- | --- | --- | --- | --- | --- | --- | --- | --- | --- | --- | --- | --- | --- | --- |
| C[C@@H]1OC(Nc2cccc(C(=O)OCC3CCCCC3)c2)[C@@H](O)[C@H](O)[C@@H]1O (stereo partly drawn) [Compound 22, hexahydrobenzyl m-aminobenzoate-N-L-fucoside] | 10100 | 7.7 | 15 | 21 | 133 | 150 | 19 | 15.7 | 125 | 133 | 75 | 37 | 6 | 38 | 29 | 35 | 24.6 | – |
| O=C(OCC1CCCCC1)c1ccc(NC2OC[C@@H](O)[C@@H](O)[C@H]2O)cc1 (stereo partly drawn) [Compound 23, hexahydrobenzyl p-aminobenzoate-N-D-riboside] | 12600 | 22.5 | 21 | 22 | 120 | 126 | 23 | 7.3 | 141 | 143 | 80 | 39 | -1 | 40 | 15 | 47 | 4.9 | – |
| O=C(OCC1CCCCC1)c1ccc(NC2O[C@H](CO)[C@@H](O)[C@H](O)[C@H]2O)cc1 (stereo partly drawn) [Compound 24, hexahydrobenzyl p-aminobenzoate-N-D-glucoside] | 12100 | 8.7 | 19 | 21 | 101 | 145 | 41 | 16.9 | 95 | 111 | 85 | 42 | 2 | 32 | 48 | 40 | 10.6 | – |
| C[C@@H]1OC(Nc2ccc(C(=O)OCC3CCCCC3)cc2)[C@H](O)[C@H](O)[C@H]1O (stereo partly drawn) [Compound 25, hexahydrobenzyl p-aminobenzoate-N-L-rhamnoside] | 9400 | 22.3 | 16 | 18 | 88 | 127 | 50 | 6.5 | 95 | 106 | 93 | 44 | -3 | 44 | 54 | 50 | 18.1 | – |
| COC(=O)Cc1ccc(NC2O[C@@H](C)[C@H](O)[C@@H](O)[C@H]2O)cc1 (stereo partly drawn) [Compound 26, methyl p-aminophenylacetate-N-L-rhamnoside] | 11200 | 17.7 | 20 | 23 | 90 | 136 | 34 | 24.1 | 123 | 133 | 92 | 41 | -3 | 51 | 60 | 45 | 5.3 | – |
| C[C@@H]1OC(Nc2ccc(CC(=O)O)cc2)[C@H](O)[C@H](O)[C@H]1O (stereo partly drawn) [Compound 28, sodium p-aminophenylacetate-N-L-rhamnoside] | – | – | 25 | 19 | 92 | 77 | – | – | – | – | 87 | 38 | – | – | – | – | – | LD50, acute oral toxicity (ICR-JCL mice): 11100 mg/kg; I.R. against exudation (exudation): 6.1%; I.R. of writhing (acetic acid writhing): 25%; I.R. against cotton pellet edema (cotton pellet granuloma): 20.6%; Reduction of beta-lipoprotein level after 3 hrs. (beta-lipoprotein; 300 mg/kg): 101 mg/dL; Reduction of beta-lipoprotein level after 6 hrs. (beta-lipoprotein; 300 mg/kg): 100 mg/dL; Reduction of cholesterol level after 3 hrs. (total cholesterol; 300 mg/kg): 5 mg/dL; Reduction of cholesterol level after 6 hrs. (total cholesterol; 300 mg/kg): 25 mg/dL; Antitumour activity, inhibiting rate (I.R.) (Sarcoma-180): 45%; I.R. against carrageenin edema (carrageenin edema): 8.3% |
| C[C@@H]1OC(Nc2ccc(CC(=O)O)cc2)[C@H](O)[C@H](O)[C@H]1O (stereo partly drawn) [Compound 29, potassium p-aminophenylacetate-N-L-rhamnoside] | – | – | 21 | 17 | 88 | 71 | – | – | – | – | 84 | 41 | – | – | – | – | – | LD50, acute oral toxicity (ICR-JCL mice): 10000 mg/kg; I.R. against exudation (exudation): 5.8%; I.R. of writhing (acetic acid writhing): 26%; I.R. against cotton pellet edema (cotton pellet granuloma): 15.9%; Reduction of beta-lipoprotein level after 3 hrs. (beta-lipoprotein; 300 mg/kg): 95 mg/dL; Reduction of beta-lipoprotein level after 6 hrs. (beta-lipoprotein; 300 mg/kg): 121 mg/dL; Reduction of cholesterol level after 3 hrs. (total cholesterol; 300 mg/kg): 3 mg/dL; Reduction of cholesterol level after 6 hrs. (total cholesterol; 300 mg/kg): 40 mg/dL; Antitumour activity, inhibiting rate (I.R.) (Sarcoma-180): 38%; I.R. against carrageenin edema (carrageenin edema): 9.3% |
| NC[C@H]1O[C@H](O[C@H]2[C@H](O)[C@@H](O[C@H]3O[C@H](CO)[C@@H](O)[C@H](N)[C@H]3O)[C@H](N)C[C@@H]2N)[C@H](O)[C@@H](O)[C@@H]1O [Kanamycin] | – | – | – | – | – | – | – | – | – | – | – | – | – | – | – | – | – | Length of growth inhibition H17 [3]: 3 mm; Length of growth inhibition M45 [4]: 6 mm; Difference of growth inhibition (M45, H17) ([4]; M45 minus H17): 3 mm |
